Test results as given in patent US12715893B2, “Oxysterol compounds and uses thereof” (MAX BIOPHARMA, INC., priority 2020, dated 2026).

Tests used:
Hh signaling = details: background statement; Compound 8 in mesenchymal cells; cited from earlier work
[1] = tested on: Hedgehog target gene Gli1; test: Expression of Hedgehog target gene Gli1 (quantitative RT-PCR) in M2 cells; assay type: cell-based; details: 5% FBS in DMEM, 1 μM and 5 μM, vs DMSO control (FIG. 6)
Procedure: (§1) The compounds described herein were tested on cell cultures to assess their effects on the mRNA expression of Hedgehog target genes Gli1. Conditioned medium (CM) was collected from CAPAN-1 human pancreatic tumor cells grown to confluence in DMEM containing 10% fetal bovine serum (FBS) and contains Hh proteins that activate the Hh pathway in cells receiving the CM. After 7 days of incubation of confluent cells with the described medium, CM was collected, spun for 5 minutes at 1800 rpm to remove dead cells and debris, and then frozen at −80° C. For treating cells, CM was thawed and diluted 1:2 to 1:6 with DMEM containing 5% FBS. NIH3T3 cells and M2 cells were cultured in 12-well plates with DMEM containing 10% FBS. The cells were then treated with DMEM containing 5% FBS or CM in the presence or absence of the compounds prepared in DMSO when they reach confluence. Quantitative RT-PCR was then performed according to the following approach. After 72 to 96 hours of the treatments, the cells were lysed and subjected to RNA extraction with RNease Plus Min kit (Qiagen). A portion of RNA from each well was subjected to Reverse Transcription (RT) using iScript Reverse Transcription Supermix (BioRad). QPCR was performed to test the expression of Hh target gene Gli1 using IQ SYBR Green Supermix (BioRad).

[2] = tested on: Hedgehog target gene Gli1; test: Expression of Hedgehog target gene Gli1 (quantitative RT-PCR) in NIH3T3 cells; assay type: cell-based; details: for effect on Hh signaling (relative expression of Gli1) / effect on Gli/Hh signaling in cells treated with Conditioned Medium (relative expression of Gli1): 5 μM and 10 μM; for effect on Hh signaling (relative expression of Gli1): vs DMSO control (FIG. 5); for effect on Gli/Hh signaling in cells treated with Conditioned Medium (relative expression of Gli1): CAPAN-1 conditioned medium (CM), vs CM (FIG. 5, FIG. 7)
Procedure: as §1

TGFβ signaling = details: background statement; cited from earlier work
[3] = tested on: Hedgehog target gene Gli1; test: Expression of Hedgehog target gene Gli1 (Q-RT-PCR, normalized to Oaz1) in C3H10T1/2 cells; assay type: cell-based; details: 5 μM and 10 μM, 72 hours (FIG. 9)
Procedure: as §1, with “A portion of RNA from each well was subjected to Reverse Transcription (RT) using iScript Reverse Transcription Supermix (BioRad). QPCR was performed to test the expression of Hh target gene Gli1 using IQ SYBR Green Supermix (BioRad).” left out
In a similar manner, C3H10T1/2 cells were pretreated for 2 hours with Compound 17 in DMEM containing 5% FBS. […] After 72 hours, RNA was extracted and analyzed by Q-RT-PCR for the expression of Hh target gene Gli1 and normalized to Oaz1 expression.

Structure (SMILES): CC(C)CCC[C@](C)(O)[C@H]1CC[C@H]2[C@@H]3CC=C4C[C@@H](O)CC[C@]4(C)[C@H]3CC[C@@]21C [Compound 8, 20(S)-hydroxycholesterol]
- effect on Hh signaling (Hh signaling): induces allosteric activation of Hh signaling

Structure (SMILES): CCCCCC[C@](C)(O)[C@H]1CC[C@H]2[C@@H]3C[C@H](O)[C@H]4C[C@@H](O)CC[C@]4(C)[C@H]3CC[C@@]21C [Compound 10, (3S,5S,6S,8R,9S,10R,13S,14S,17S)-17-((S)-2-hydroxyoctan-2-yl)-10,13-dimethylhexadecahydro-1H-cyclopenta[a]phenanthrene-3,6-diol, reference compound]
- effect on Gli signaling (relative expression of Gli1) [1]: stimulate Gli signaling
- effect on Hh signaling (Hh signaling): Hh activator

Structure (SMILES): C[C@]12CC[C@H](O)C[C@@H]1CC[C@@H]1[C@@H]2CC[C@]2(C)[C@@H]([C@H](O)CCc3ccc(F)cc3)CC[C@@H]12 [Compound 2, (3S,5S,8R,9S,10S,13S,14S,17S)-17-((R)-3-(4-fluorophenyl)-1-hydroxypropyl)-10,13-dimethylhexadecahydro-1H-cyclopenta[a]phenanthren-3-ol]
- effect on Hh signaling (relative expression of Gli1) ([2]; 5% FBS in DMEM): increase Hh signaling, although Compound 2 to a lesser degree than Compound 1
- effect on Gli/Hh signaling in cells treated with Conditioned Medium (relative expression of Gli1) [2]: weak Hh antagonist

Structure (SMILES): C[C@]12CC[C@H]3[C@@H](CC=C4C[C@@H](O)CC[C@@]43C)[C@@H]1CC[C@@H]2[C@](C)(O)CCc1cccnc1 [Compound 12, (3S,8S,9S,10R,13S,14S,17S)-17-((R)-2-hydroxy-4-(pyridin-3-yl)butan-2-yl)-10,13-dimethyl-2,3,4,7,8,9,10,11,12,13,14,15,16,17-tetradecahydro-1H-cyclopenta[a]phenanthren-3-ol]
- effect on Hh signaling (Hh signaling): Hh inhibitors
- effect on TGFβ signaling (TGFβ signaling): blocks TGFβ signaling

Structure (SMILES): C[C@]12CC[C@H](O)C[C@@H]1CC[C@@H]1[C@@H]2CC[C@]2(C)[C@@H](C(CCc3ccc(F)cc3)=NO)CC[C@@H]12 [Compound 17, 3-(4-fluorophenyl)-1-((3S,5S,8R,9S,10S,13S,14S,17S)-3-hydroxy-10,13-dimethylhexadecahydro-1H-cyclopenta[a]phenanthren-17-yl)propan-1-one oxime]
- effect on Hh signaling (relative expression of Gli1) ([3]; 5% FBS in DMEM): activator of Hh signaling
- effect on conditioned medium induced Gli1 expression ([3]; CAPAN-1 CM, 2 hours pretreatment): further enhances the conditioned medium induced Gli1 expression

Structure (SMILES): C[C@]12CC[C@H](O)C[C@@H]1CC[C@@H]1[C@@H]2CC[C@@]2(C)[C@H]1CC[C@@H]2[C@](C)(O)CCc1ccc(F)cc1 [Compound 11, (3S,5S,8R,9S,10S,13S,14S,17S)-17-((R)-4-(4-fluorophenyl)-2-hydroxybutan-2-yl)-10,13-dimethylhexadecahydro-1H-cyclopenta[a]phenanthren-3-ol]
- effect on Hh signaling (Hh signaling): Hh inhibitors

Structure (SMILES): CC(C)CC[C@@H](O)[C@](C)(O)[C@H]1CC[C@H]2[C@@H]3CC=C4C[C@@H](O)CC[C@]4(C)[C@H]3CC[C@]12C [Compound 9, 20α,22(R)-dihydroxycholesterol]
- effect on Hh signaling (Hh signaling): blocks Hh signaling

Structure (SMILES): C[C@]12CC[C@H]3[C@@H](CC=C4C[C@@H](O)CC[C@@]43C)[C@@H]1CC[C@@H]2[C@H](O)CCc1ccc(F)cc1 [Compound 1, (3S,8S,9S,10R,13S,14S,17S)-17-((R)-3-(4-fluorophenyl)-1-hydroxypropyl)-10,13-dimethyl-2,3,4,7,8,9,10,11,12,13,14,15,16,17-tetradecahydro-1H-cyclopenta[a]phenanthren-3-ol]
- effect on Hh signaling (relative expression of Gli1) ([2]; 5% FBS in DMEM): increase Hh signaling
- effect on Gli signaling (relative expression of Gli1) [1]: stimulate Gli signaling

Structure (SMILES): C[C@]12CC[C@H](O)C[C@@H]1[C@@H](O)C[C@@H]1[C@@H]2CC[C@]2(C)[C@@H]([C@H](O)CCc3ccc(F)cc3)CC[C@@H]12 [Compound 5, (3S,5S,6S,8S,9S,10R,13S,14S,17S)-17-((R)-3-(4-fluorophenyl)-1-hydroxypropyl)-10,13-dimethylhexadecahydro-1H-cyclopenta[a]phenanthrene-3,6-diol]
- effect on Gli signaling (relative expression of Gli1) [1]: stimulate Gli signaling

Structure (SMILES): CC[C@@](O)(CCc1cccnc1)[C@H]1CC[C@H]2[C@@H]3CC[C@H]4C[C@@H](O)CC[C@]4(C)[C@H]3CC[C@]12C [Compound 6, (3S,5S,8R,9S,10S,13S,14S,17S)-17-((R)-3-hydroxy-1-(pyridin-3-yl)pentan-3-yl)-10,13-dimethylhexadecahydro-1H-cyclopenta[a]phenanthren-3-ol]
- effect on baseline expression of Gli ([2]; 5% FBS in DMEM, 10 μM, vs DMSO control (FIG. 8)): lowers the baseline expression of Gli
- effect on Gli/Hh signaling in cells treated with Conditioned Medium (relative expression of Gli1) [2]: inhibits Gli signaling
